Test results published in patent publication US20260022142A1, “MACROCYCLIC IMMUNOMODULATORS” (Bristol-Myers Squibb Company, priority 2022, published 2026).
pIC50: −log10 of the molar value. Bridge positions count the residues as written; N and C are the ends. Square brackets hold non-standard residues; d marks the D form. Peptide text beside a SMILES is read from it. * marks the point of attachment. ξ: configuration not given here. Phe(4-CONH2) = NC(=O)c1ccc(C[C@H](N)C(=O)O)cc1; Bip = N[C@@H](Cc1ccc(-c2ccccc2)cc1)C(=O)O; Phe(4-NH2) = Nc1ccc(C[C@H](N)C(=O)O)cc1; Phe(3-Me) = Cc1cccc(C[C@H](N)C(=O)O)c1; Cha = N[C@@H](CC1CCCCC1)C(=O)O; Thr(3ξ) = CC(O)[C@H](N)C(=O)O; NMeNle = CCCC[C@H](NC)C(=O)O; Dap(Me) = CNC[C@H](N)C(=O)O; Carboxymethyl = O=C(O)C*; Orn = NCCC[C@H](N)C(=O)O; Aun = NCCCCCCCCCCC(=O)O; Dab = NCC[C@H](N)C(=O)O; Dap = NC[C@H](N)C(=O)O; Piv = CC(C)(C)C(=O)*

Target: T1, PD-1/PD-L1 interaction (PE-labeled human PD-L1-Ig binding to Jurkat cell line over-expressing human PD-1) (Homo sapiens, UniProt Q15116)
T1 construct: expressed in transfected cells; host or cells: Jurkat
Assay: Jurkat-PD-1 Cell Binding High-Content Screening Assay (CBA)
Type: cell-based
Details: Jurkat cell line over-expressing human PD-1; PE-labeled PD-L1-Ig 20 nM final; read-out: Jurkat hPD1-PDL1 IC50
Method in brief: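 Binding of fluorescent PD-L1-Ig (phycoerythrin on Ig tag, 20 nM final, 1 h) measured by high-content imaging of fixed, Hoechst-counterstained Jurkat-hPD-1 cells. Compound added 2 h at 37° C beforehand, in DMEM with 10% fetal calf serum.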

T1 sequence (Q15116 25-288): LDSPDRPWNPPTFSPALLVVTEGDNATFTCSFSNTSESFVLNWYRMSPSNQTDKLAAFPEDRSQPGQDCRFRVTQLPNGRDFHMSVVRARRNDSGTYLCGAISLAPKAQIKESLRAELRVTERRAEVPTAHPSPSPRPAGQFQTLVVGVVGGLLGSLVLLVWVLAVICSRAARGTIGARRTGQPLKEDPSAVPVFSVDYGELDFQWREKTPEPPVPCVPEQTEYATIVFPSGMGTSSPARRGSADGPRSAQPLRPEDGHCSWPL

Row | Compound | pIC50
1 | CNC[C@@H]1NC(=O)CSC[C@@H](C(=O)N[C@@H](CCN)C(=O)NCCCCCCCCCCC(=O)O)NC(=O)[C@H](CO)NC(=O)[C@H](C(C)O)NC(=O)[C@H](CC2CCCCC2)NC(=O)[C@H](CCN)NC(=O)[C@@H](CC(C)C)NC(=O)[C@H](CCCN)NC(=O)[C@H](Cc2ccc(O)cc2)NC(=O)[C@H](Cc2ccc(-c3ccccc3)cc2)NC(=O)[C@H](CCCCNC(=O)C(C)(C)C)NC(=O)[C@H](Cc2cccc(C)c2)NC(=O)[C@H](CC(=O)O)NC(=O)[C@H](Cc2ccc(OCC(=O)O)cc2)NC1=O (stereo partly drawn) [Compound 3596] ({CH2CO}-[Dap(Me)]Y(Carboxymethyl)D[Phe(3-Me)]K(Piv)[Bip]Y[Orn][dL][Dab][Cha][Thr(3ξ)]SC[Dab][Aun]-OH; thioether N-14) | 6.79
2 | CCCC[C@H]1C(=O)N[C@@H](Cc2ccc(OCC(=O)O)cc2)C(=O)N[C@@H](CC(=O)O)C(=O)N[C@@H](Cc2cccc(C)c2)C(=O)N[C@@H](Cc2ccc(OCC(=O)O)cc2)C(=O)N[C@@H](Cc2ccc(-c3ccccc3)cc2)C(=O)N[C@@H](Cc2ccc(OCC(=O)O)cc2)C(=O)N[C@@H](CCCN)C(=O)N[C@H](CC(C)C)C(=O)N[C@@H](CCN)C(=O)N[C@@H](CC2CCCCC2)C(=O)N[C@@H](C(C)C)C(=O)N[C@@H](CO)C(=O)N[C@H](C(=O)N[C@@H](CCN)C(=O)NCCCCCCCCCCC(=O)O)CSCC(=O)N1C [Compound 3598] ({CH2CO}-[NMeNle]Y(Carboxymethyl)D[Phe(3-Me)]Y(Carboxymethyl)[Bip]Y(Carboxymethyl)[Orn][dL][Dab][Cha]VSC[Dab][Aun]-OH; thioether N-14) | 7.86
3 | Cc1cccc(C[C@@H]2NC(=O)[C@H](CC(=O)O)NC(=O)[C@H](Cc3ccc(OCC(=O)O)cc3)NC(=O)[C@H](CCN)NC(=O)CSC[C@@H](C(=O)N[C@@H](CCCCN)C(=O)NCCCCCCCCCCC(=O)O)NC(=O)[C@H](CCCCN)NC(=O)[C@H](C(C)O)NC(=O)[C@H](CC3CCCCC3)NC(=O)[C@H](CCN)NC(=O)[C@@H](CC(C)C)NC(=O)[C@H](CCCN)NC(=O)[C@H](Cc3ccc(O)cc3)NC(=O)[C@H](Cc3ccc(-c4ccccc4)cc3)NC(=O)[C@H](C(C)C)NC2=O)c1 (stereo partly drawn) [Compound 3599] ({CH2CO}-[Dab]Y(Carboxymethyl)D[Phe(3-Me)]V[Bip]Y[Orn][dL][Dab][Cha][Thr(3ξ)]KCK[Aun]-OH; thioether N-14) | 8.31
4 | Cc1cccc(C[C@@H]2NC(=O)[C@H](CC(=O)O)NC(=O)[C@H](Cc3ccc(OCC(=O)O)cc3)NC(=O)[C@H](Cc3ccc(C(N)=O)cc3)NC(=O)CSC[C@@H](C(=O)N[C@@H](CCCCN)C(=O)NCCCCCCCCCCC(=O)O)NC(=O)[C@H](CCCCN)NC(=O)[C@H](C(C)O)NC(=O)[C@H](CC3CCCCC3)NC(=O)[C@H](CCN)NC(=O)[C@@H](CC(C)C)NC(=O)[C@H](CCCN)NC(=O)[C@H](Cc3ccc(O)cc3)NC(=O)[C@H](Cc3ccc(-c4ccccc4)cc3)NC(=O)[C@H](C(C)C)NC2=O)c1 (stereo partly drawn) [Compound 3600] ({CH2CO}-[Phe(4-CONH2)]Y(Carboxymethyl)D[Phe(3-Me)]V[Bip]Y[Orn][dL][Dab][Cha][Thr(3ξ)]KCK[Aun]-OH; thioether N-14) | 7.40
5 | CC(=O)Nc1ccc(C[C@@H]2NC(=O)[C@H](Cc3cccc(C)c3)NC(=O)[C@H](CC(=O)O)NC(=O)[C@H](Cc3ccc(OCC(=O)O)cc3)NC(=O)[C@H](CN)NC(=O)CSC[C@@H](C(=O)N[C@@H](CCN)C(=O)NCCCCCCCCCCC(=O)O)NC(=O)[C@H](C(C)O)NC(=O)[C@H](C(C)C)NC(=O)[C@H](CC3CCCCC3)NC(=O)[C@H](CCN)NC(=O)[C@@H](CC(C)C)NC(=O)[C@H](CCCN)NC(=O)[C@H](Cc3ccc(NC(C)=O)cc3)NC(=O)[C@H](Cc3ccc(-c4ccccc4)cc3)NC2=O)cc1 (stereo partly drawn) [Compound 3601] ({CH2CO}-[Dap]Y(Carboxymethyl)D[Phe(3-Me)][Phe(4-NH2)](Ac)[Bip][Phe(4-NH2)](Ac)[Orn][dL][Dab][Cha]V[Thr(3ξ)]C[Dab][Aun]-OH; thioether N-14) | 7.42
